From US20260262643A1, “HERBICIDAL BENZOXAZINES” (FMC CORPORATION, priority 2022, published 2026)

Columns and labels:
[1] = tested on: barnyardgrass; assay: Test C preemergence; format: in vivo, Echinochloa crusgalli; details: 0 to 100 scale (0 no effect, 100 complete control); for Plant response rating, Barnyardgrass: Preemergence, 500 g ai/ha, visual rating after 10 days; for Barnyardgrass plant response rating: Test C, preemergence, 125 g ai/ha
Outline: (§1)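 Visual injury ratings on a 0–100 scale (100 = complete control) were made against untreated controls 10 days after treatment in the greenhouse. Compounds, formulated with surfactant in non-phytotoxic solvent, were sprayed on soil preemergence or onto one- to two-leaf plants 2–10 cm tall postemergence.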

[2] = tested on: blackgrass; assay: Test C preemergence; format: in vivo, Alopecurus myosuroides; details: 0 to 100 scale (0 no effect, 100 complete control); for Plant response rating, Blackgrass: Preemergence, 500 g ai/ha, visual rating after 10 days; for Blackgrass plant response rating: Test C, preemergence, 125 g ai/ha
Outline: as §1

[3] = tested on: corn; assay: Test C preemergence; format: in vivo, Zea mays; details: 0 to 100 scale (0 no effect, 100 complete control); for Plant response rating, Corn: Preemergence, 500 g ai/ha, visual rating after 10 days; for Corn plant response rating: Test C, preemergence, 125 g ai/ha
Outline: as §1

[4] = tested on: green foxtail; assay: Test C preemergence; format: in vivo, Setaria viridis; details: 0 to 100 scale (0 no effect, 100 complete control); for Plant response rating, Foxtail, Green: Preemergence, 500 g ai/ha, visual rating after 10 days; for Foxtail, Green plant response rating: Test C, preemergence, 125 g ai/ha
Outline: as §1

[5] = tested on: kochia; assay: Test C preemergence; format: in vivo, Bassia scoparia; details: 0 to 100 scale (0 no effect, 100 complete control); for Plant response rating, Kochia: Preemergence, 500 g ai/ha, visual rating after 10 days; for Kochia plant response rating: Test C, preemergence, 125 g ai/ha
Outline: as §1

[6] = tested on: oat, wild; assay: Test C preemergence; format: in vivo, Avena fatua; details: 0 to 100 scale (0 no effect, 100 complete control); for Plant response rating, Oat, Wild: Preemergence, 500 g ai/ha, visual rating after 10 days; for Oat, Wild plant response rating: Test C, preemergence, 125 g ai/ha
Outline: as §1

[7] = tested on: pigweed, palmer; assay: Test C preemergence; format: in vivo, Amaranthus palmeri; details: 0 to 100 scale (0 no effect, 100 complete control); for Plant response rating, Pigweed, Palmer: Preemergence, 500 g ai/ha, visual rating after 10 days; for Pigweed, Palmer plant response rating: Test C, preemergence, 125 g ai/ha
Outline: as §1

[8] = tested on: ragweed; assay: Test C preemergence; format: in vivo, Ambrosia artemisiifolia; details: 0 to 100 scale (0 no effect, 100 complete control); for Plant response rating, Ragweed: Preemergence, 500 g ai/ha, visual rating after 10 days; for Ragweed plant response rating: Test C, preemergence, 125 g ai/ha
Outline: as §1

[9] = tested on: soybean; assay: Test C preemergence; format: in vivo, Glycine max; details: 0 to 100 scale (0 no effect, 100 complete control); for Plant response rating, Soybean: Preemergence, 500 g ai/ha, visual rating after 10 days; for Soybean plant response rating: Test C, preemergence, 125 g ai/ha
Outline: as §1

[10] = tested on: wheat; assay: Test C preemergence; format: in vivo, Triticum aestivum; details: 0 to 100 scale (0 no effect, 100 complete control); for Plant response rating, Wheat: Preemergence, 500 g ai/ha, visual rating after 10 days; for Wheat plant response rating: Test C, preemergence, 125 g ai/ha
Outline: as §1

[11] = tested on: barnyardgrass; assay: Test C postemergence; format: in vivo, Echinochloa crusgalli; details: 10 days
Outline: as §1

[12] = tested on: blackgrass; assay: Test C postemergence; format: in vivo, Alopecurus myosuroides; details: 10 days
Outline: as §1

[13] = tested on: corn; assay: Test C postemergence; format: in vivo, Zea mays; details: 10 days
Outline: as §1

[14] = tested on: green foxtail; assay: Test C postemergence; format: in vivo, Setaria viridis; details: 10 days
Outline: as §1

[15] = tested on: kochia; assay: Test C postemergence; format: in vivo, Bassia scoparia; details: 10 days
Outline: as §1

[16] = tested on: oat, wild; assay: Test C postemergence; format: in vivo, Avena fatua; details: 10 days
Outline: as §1

[17] = tested on: pigweed, palmer; assay: Test C postemergence; format: in vivo, Amaranthus palmeri; details: 10 days
Outline: as §1

[18] = tested on: ragweed; assay: Test C postemergence; format: in vivo, Ambrosia artemisiifolia; details: 10 days
Outline: as §1

[19] = tested on: ryegrass, Italian; assay: Test C postemergence; format: in vivo, Lolium multiflorum; details: 10 days
Outline: as §1

[20] = tested on: soybean; assay: Test C postemergence; format: in vivo, Glycine max; details: 10 days
Outline: as §1

[21] = tested on: wheat; assay: Test C postemergence; format: in vivo, Triticum aestivum; details: 10 days
Outline: as §1

[22] = tested on: galium; assay: Test C postemergence; format: in vivo, Galium aparine; details: 10 days
Outline: as §1

[23] = tested on: horseweed; assay: Test C postemergence; format: in vivo, Erigeron canadensis; details: 10 days
Outline: as §1

[24] = tested on: barnyardgrass; assay: Test D flooded paddy test; format: in vivo, Echinochloa crus-galli; details: 250 g ai/ha, applied to paddy water, visual rating after 13 to 14 days, scale 0 to 100 (0 no effect, 100 complete control)
Outline: (§2)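 Compounds go straight into paddy water over 2-leaf plants in pots flooded to 3 cm. Greenhouse holding lasts 13 to 14 days. Injury is scored by eye against controls from 0 (none) to 100 (complete control).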

[25] = tested on: ducksalad; assay: Test D flooded paddy test; format: in vivo, Heteranthera limosa; details: 250 g ai/ha, applied to paddy water, visual rating after 13 to 14 days, scale 0 to 100 (0 no effect, 100 complete control)
Outline: as §2

[26] = tested on: rice; assay: Test D flooded paddy test; format: in vivo, Oryza sativa; details: 250 g ai/ha, applied to paddy water, visual rating after 13 to 14 days, scale 0 to 100 (0 no effect, 100 complete control)
Outline: as §2

[27] = tested on: sedge, umbrella; assay: Test D flooded paddy test; format: in vivo, Cyperus difformis; details: 250 g ai/ha, applied to paddy water, visual rating after 13 to 14 days, scale 0 to 100 (0 no effect, 100 complete control)
Outline: as §2

[28] = 125 g ai/ha, postemergence, 0 to 100 scale, 0 no effect, 100 complete control
[29] = Postemergence, 500 g ai/ha, visual 0 to 100 scale (0 no effect, 100 complete control)

CCc1c(C)cc(-n2cnc(C(C)C)n2)cc1C(=O)N1C[C@H](C)Oc2c(Cl)cccc21 [Compound 179]
40: Plant response rating, Soybean [20, 29] | Plant response rating, Horseweed [23, 29]
50: Plant response rating, Foxtail, Green [4] | Plant response rating, Galium [22, 28]
30: Plant response rating, Kochia [15, 28] | Plant response rating, Kochia [15, 29]
0: Plant response rating, Barnyardgrass [1] | Barnyardgrass plant response rating [1] | Plant response rating, Blackgrass [2] | Blackgrass plant response rating [2] | Plant response rating, Corn [3] | Corn plant response rating [3] | Foxtail, Green plant response rating [4] | Plant response rating, Kochia [5] | Kochia plant response rating [5] | Plant response rating, Oat, Wild [6] | Oat, Wild plant response rating [6] | Pigweed, Palmer plant response rating [7] | Plant response rating, Ragweed [8] | Ragweed plant response rating [8] | Plant response rating, Soybean [9] | Soybean plant response rating [9] | Plant response rating, Wheat [10] | Wheat plant response rating [10] | Plant response rating, Blackgrass [12, 28] | Plant response rating, Blackgrass [12, 29] | Plant response rating, Corn [13, 28] | Plant response rating, Oat, Wild [16, 28] | Plant response rating, Oat, Wild [16, 29] | Plant response rating, Ryegrass, Italian [19, 28] | Plant response rating, Horseweed [23, 28] | Plant response rating, Barnyardgrass (Flood) [24] | Plant response rating, Ducksalad (Flood) [25] | Plant response rating, Rice (Flood) [26] | Plant response rating, Sedge, Umbrella (Flood) [27]
90: Plant response rating, Galium [22, 29]
60: Plant response rating, Pigweed, Palmer [17, 29]
20: Plant response rating, Foxtail, Green [14, 29] | Plant response rating, Ryegrass, Italian [19, 29]
10: Plant response rating, Pigweed, Palmer [7] | Plant response rating, Barnyardgrass [11, 28] | Plant response rating, Barnyardgrass [11, 29] | Plant response rating, Corn [13, 29] | Plant response rating, Foxtail, Green [14, 28] | Plant response rating, Pigweed, Palmer [17, 28] | Plant response rating, Ragweed [18, 29] | Plant response rating, Wheat [21, 28] | Plant response rating, Wheat [21, 29]

CSCc1ncn(-c2ccc(C)c(C(=O)N3C[C@H](C)Oc4c(Cl)cccc43)c2)n1 [Compound 178]
30: Oat, Wild plant response rating [6] | Wheat plant response rating [10] | Plant response rating, Oat, Wild [16, 28]
70: Plant response rating, Wheat [10] | Plant response rating, Horseweed [23, 28]
15: Plant response rating, Barnyardgrass (Flood) [24] | Plant response rating, Rice (Flood) [26]
50: Plant response rating, Corn [3] | Plant response rating, Ragweed [8] | Plant response rating, Wheat [21, 29]
95: Plant response rating, Ducksalad (Flood) [25]
0: Ragweed plant response rating [8]
60: Blackgrass plant response rating [2] | Soybean plant response rating [9] | Plant response rating, Barnyardgrass [11, 29] | Plant response rating, Blackgrass [12, 28] | Plant response rating, Corn [13, 28] | Plant response rating, Ragweed [18, 28]
80: Plant response rating, Soybean [9] | Plant response rating, Kochia [15, 28] | Plant response rating, Ryegrass, Italian [19, 28]
90: Plant response rating, Barnyardgrass [1] | Plant response rating, Blackgrass [2] | Kochia plant response rating [5] | Plant response rating, Oat, Wild [6] | Pigweed, Palmer plant response rating [7] | Plant response rating, Blackgrass [12, 29] | Plant response rating, Corn [13, 29] | Plant response rating, Foxtail, Green [14, 29] | Plant response rating, Kochia [15, 29] | Plant response rating, Oat, Wild [16, 29] | Plant response rating, Pigweed, Palmer [17, 28] | Plant response rating, Pigweed, Palmer [17, 29] | Plant response rating, Ragweed [18, 29] | Plant response rating, Horseweed [23, 29] | Plant response rating, Sedge, Umbrella (Flood) [27]
10: Plant response rating, Barnyardgrass [11, 28]
100: Plant response rating, Foxtail, Green [4] | Foxtail, Green plant response rating [4] | Plant response rating, Kochia [5] | Plant response rating, Pigweed, Palmer [7] | Plant response rating, Ryegrass, Italian [19, 29] | Plant response rating, Soybean [20, 28] | Plant response rating, Soybean [20, 29] | Plant response rating, Galium [22, 28] | Plant response rating, Galium [22, 29]
20: Barnyardgrass plant response rating [1] | Corn plant response rating [3] | Plant response rating, Foxtail, Green [14, 28] | Plant response rating, Wheat [21, 28]
